This is an account of results in patent US20160326153A1, “N-SUBSTITUTED IMINO HETEROCYCLIC COMPOUNDS” (BASF SE, priority 2013, published 2016).

Common to all, as to assay type: in vivo
One data set deals with Nilaparvata lugens. Nature of the data set: Rice brown plant hopper (Nilaparvata lugens) on sprayed rice seedlings. The conditions noted are these: 100 ppm; after 72 hours. As to the method:
B.9 Rice Brown Plant Hopper (Nilaparvata lugens)
Rice seedlings were cleaned and washed 24 hours before spraying. The active compounds were formulated in 1:1 acetone:water (vol:vol) and 0.01% vol/vol surfactant (Kinetic HV) was added. Potted rice seedlings were sprayed with 5 ml test solution, air dried, covered with Mylar cages and inoculated with 10 adults. Treated rice plants were kept at about 28-29° C. and relative humidity of about 50-60%. Percent mortality was recorded after 72 hours.

The next data set concerns Megoura viciae. The experiment in a line: Vetch aphid (Megoura viciae) through contact or systemic means, broad bean leaf disks. The conditions noted are these: foliar, 120 h, read-out: mortality in comparison with untreated controls. As to the method: B.10 Vetch Aphid (Megoura viciae)
For evaluating control of vetch aphid (Megoura viciae) through contact or systemic means the test unit consisted of 24-well-microtiter plates containing broad bean leaf disks.
The compounds were formulated using a solution containing 75% v/v water and 25% v/v DMSO. Different concentrations of formulated compounds were sprayed onto the leaf disks at 2.5 μl, using a custom built micro atomizer, at two replications.
After application, the leaf disks were air-dried and 5-8 adult aphids placed on the leaf disks inside the microtiter plate wells. The aphids were then allowed to suck on the treated leaf disks and incubated at about 23±1° C. and about 50±5% relative humidity for 5 days. Aphid mortality and fecundity was then visually assessed.

For another data set, the system named is Aedes aegypti. Nature of the data set: whole plant or invertebrate. The conditions noted are these: 48 h, larval mortality after 2 days, read-out: mortality in comparison with untreated controls. As to the method: B.11 Yellow Fever Mosquito (Aedes aegypti)
For evaluating control of yellow fever mosquito (Aedes aegypti) the test unit consisted of 96-well-microtiter plates containing 200 μl of tap water per well and 5-15 freshly hatched A. aegypti larvae.
The active compounds were formulated using a solution containing 75% (v/v) water and 25% (v/v) DMSO. Different concentrations of formulated compounds or mixtures were sprayed onto the insect diet at 2.5 μl, using a custom built micro atomizer, at two replications.
After application, microtiter plates were incubated at 28+1° C., 80+5% RH for 2 days. Larval mortality was then visually assessed.

In the next data set the test system is Myzus persicae. Nature of the data set: Green peach aphid (Myzus persicae) through systemic means, artificial diet under membrane in microtiter plates. The conditions noted are these: 72 h, read-out: mortality in comparison with untreated controls. The source says: For evaluating control of green peach aphid (Myzus persicae) through systemic means the test unit consisted of 96-well-microtiter plates containing liquid artificial diet under an artificial membrane.
The compounds were formulated using a solution containing 75% v/v water and 25% v/v DMSO. Different concentrations of formulated compounds were pipetted into the aphid diet, using a custom built pipetter, at two replications.
After application, 5-8 adult aphids were placed on the artificial membrane inside the microtiter plate wells. The aphids were then allowed to suck on the treated aphid diet and incubated at about 23±1° C. and about 50±5% relative humidity for 3 days. Aphid mortality and fecundity was then visually assessed.

Another data set deals with Nephotettix virescens. Nature of the data set: Rice green leafhopper (Nephotettix virescens) on sprayed rice seedlings. The conditions noted are these: 72 h, read-out: mortality in comparison with untreated controls. As to the method:
B.7 Rice Green Leafhopper (Nephotettix virescens)
Rice seedlings were cleaned and washed 24 hours before spraying. The active compounds were formulated in 1:1 acetone:water (vol:vol), and 0.01% vol/vol surfactant (Kinetic HV) was added. Potted rice seedlings were sprayed with 5-6 ml test solution, air dried, covered with Mylar cages cages and inoculated with 10 adults. Treated rice plants were kept at about 28-29° C. and relative humidity of about 50-60%. Percent mortality was recorded after 72 hours.

The subject of another data set is Ceratitis capitata. Nature of the data set: Mediterranean fruitfly (Ceratitis capitata) control, microtiter plates with insect diet and eggs. Particulars: 120 h, read-out: mortality in comparison with untreated controls. As to the method: B.5 Mediterranean Fruitfly (Ceratitis capitata)
For evaluating control of Mediterranean fruitfly (Ceratitis capitata) the test unit consisted of microtiter plates containing an insect diet and 50-80 C. capitata eggs.
The compounds were formulated using a solution containing 75% v/v water and 25% v/v DMSO. Different concentrations of formulated compounds were sprayed onto the insect diet at 5 μl, using a custom built micro atomizer, at two replications.
After application, microtiter plates were incubated at about 28±1° C. and about 80±5% relative humidity for 5 days. Egg and larval mortality was then visually assessed.

The subject of a further data set is Aphis craccivora. The experiment in a line: Cowpea aphid (Aphis craccivora) on sprayed cowpea plants. The conditions noted are these: 72 h, read-out: mortality in comparison with untreated controls. As to the method:
B.3 Cowpea Aphid (Aphis craccivora)
The active compound is dissolved at the desired concentration in a mixture of 1:1 (vol:vol) distilled water:acetone. Surfactant (Kinetic HV) is added at a rate of 0.01% (vol/vol). The test solution is prepared at the day of use.
Potted cowpea plants were colonized with approximately 50-100 aphids of various stages by manually transferring a leaf tissue cut from infested plant 24 hours before application. Plants were sprayed after the pest population has been recorded. Treated plants are maintained on light carts at about 28° C. Percent mortality was assessed after 72 hours.

Structures are written as SMILES.

For `O=C(NCC(F)(F)F)NN=c1ccccn1Cc1ccc(Cl)nc1` [IB.1-3], the “mortality in comparison with untreated controls” value with Nilaparvata lugens is “at least 75%”.
For `CO/N=C/C(=O)ON=c1ccccn1Cc1cnc(Cl)s1` (mixture of isomers) [IA.1-4, [(E/Z)-[1-[(2-chlorothiazol-5-yl)methyl]-2-pyridylidene]amino] (2E/Z)-2-methoxyimino-acetate], the mortality at 2500 ppm with Megoura viciae, in the data set with Aedes aegypti and in the data set with Myzus persicae was no less than 75% each time.
`CNC(=O)NN=c1ccccn1Cc1ccc(Cl)nc1` (mixture of isomers) [IB.1-1, 1-[(E/Z)-[1-[(6-chloro-3-pyridyl)methyl]-2-pyridylidene]amino]-3-methyl-urea]: the mortality at 2500 ppm with Megoura viciae, with Aedes aegypti, in the data set on Myzus persicae and in the data set on Ceratitis capitata was no less than 75% throughout. Also, the mortality at 500 ppm in the data set with Nephotettix virescens and in the data set on Aphis craccivora was no less than 75% each time.
